US20230321123A1, “INHIBITORS OF PSEUDOMONAS AERUGINOSA VIRULENCE FACTOR LasB” (Helmholtz-Zentrum Für Infektionsforschung GmbH, priority 2020, published 2023)

molecular target: LasB (Pseudomonas aeruginosa, UniProt Q02RJ6); assay: biochemical; set-up: species or system P. aeruginosa; conditions: @ 50 μm
Sequence (Q02RJ6 198-498): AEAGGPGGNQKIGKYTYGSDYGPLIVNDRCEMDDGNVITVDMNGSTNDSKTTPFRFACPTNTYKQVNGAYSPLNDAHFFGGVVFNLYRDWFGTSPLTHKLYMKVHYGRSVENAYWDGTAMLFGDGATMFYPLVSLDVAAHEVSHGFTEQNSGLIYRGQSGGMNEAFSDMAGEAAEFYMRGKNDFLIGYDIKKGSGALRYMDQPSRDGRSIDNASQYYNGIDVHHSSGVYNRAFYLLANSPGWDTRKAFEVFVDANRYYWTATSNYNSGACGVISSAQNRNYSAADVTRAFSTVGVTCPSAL

Structure (SMILES)	inhibition of LasB [% inhibition @ 50 μm]
O=C(CP(=O)(O)O)Nc1ccc(-c2ccc(Cl)cc2)cn1 [Example 90]	31

same assay, conditions: IC50 against LasB

Structure (SMILES)	IC50 [nM]
COCC(S)C(=O)Nc1ccc(Cl)c(Cl)c1 (stereo not shown) [Example 49]	2400 ± 600
COCC(S)C(=O)Nc1ccc(OC)cc1 (stereo not shown) [Example 50]	17000 ± 1000
O=C(O)CC(S)C(=O)Nc1ccc(Cl)c(Cl)c1 (stereo not shown) [Example 54]	3900 ± 400
O=C(Nc1nc2ccccc2s1)C(S)Cc1ccccc1 (stereo not shown) [Example 55]	750 ± 70
COc1ccc2nc(NC(=O)C(S)Cc3ccccc3)sc2c1 (stereo not shown) [Example 56]	950 ± 80
O=C(Nc1nc2ccccc2[nH]1)C(S)Cc1ccccc1 (stereo not shown) [Example 61]	7700 ± 1400
CC(C)CC(S)C(=O)Nc1nc2ccccc2s1 (stereo not shown) [Example 62]	650 ± 140
CC(C)CC(C(=O)Nc1ccc(Cl)c(Cl)c1)P(=O)(O)O (stereo not shown) [Example 64]	26 ± 4
Cc1ccc(NC(=O)C(CC(C)C)P(=O)(O)O)c(F)c1 (stereo not shown) [Example 65]	116 ± 16
COc1ccc(NC(=O)C(CC(C)C)P(=O)(O)O)cc1 (stereo not shown) [Example 66]	52 ± 10
CC(=O)c1ccc(NC(=O)C(CC(C)C)P(=O)(O)O)cc1 (stereo not shown) [Example 67]	40 ± 12
CC(C)CC(C(=O)Nc1ccc(C(F)(F)F)cc1)P(=O)(O)O (stereo not shown) [Example 68]	26 ± 8
Cc1ccc(NC(=O)C(CC(C)C)P(=O)(O)O)c(C)c1 (stereo not shown) [Example 69]	84 ± 3
CC(C)CC(C(=O)Nc1ccc(F)cc1)P(=O)(O)O (stereo not shown) [Example 70]	93 ± 22
CC(C)CC(C(=O)Nc1ccc(Cl)cc1)P(=O)(O)O (stereo not shown) [Example 71]	48 ± 4
CC(C)CC(C(=O)Nc1ccc(Br)cc1)P(=O)(O)O (stereo not shown) [Example 72]	49 ± 2
CC(C)CC(C(=O)Nc1ccc(C#N)cc1)P(=O)(O)O (stereo not shown) [Example 73]	25 ± 1
CC(C)CC(C(=O)Nc1ccc(S(=O)(=O)C(F)(F)F)cc1)P(=O)(O)O (stereo not shown) [Example 74]	28 ± 6
CC(C)CC(C(=O)Nc1cccc2ccccc12)P(=O)(O)O (stereo not shown) [Example 75]	69 ± 8
CC(C)CC(C(=O)Nc1ccc2ccccc2c1)P(=O)(O)O (stereo not shown) [Example 76]	64 ± 10

Structure (SMILES)	IC50 [nM]
CC(C)CC(C(=O)Nc1ccc2c(c1)CCC2)P(=O)(O)O (stereo not shown) [Example 77]	44 ± 4
Cc1ccc(NC(=O)C(Cc2ccccc2)P(=O)(O)O)cc1 (stereo not shown) [Example 78]	137 ± 33
O=C(Nc1ccc(C(F)(F)F)cc1)C(Cc1ccccc1)P(=O)(O)O (stereo not shown) [Example 79]	102 ± 1
Cc1ccc(NC(=O)C(CC2CCCCC2)P(=O)(O)O)cc1 (stereo not shown) [Example 80]	2030 ± 110
O=C(Nc1ccc(C(F)(F)F)cc1)C(CC1CCCCC1)P(=O)(O)O (stereo not shown) [Example 81]	1870 ± 30
CC(C)CC(C(=O)Nc1ccc(Cl)cn1)P(=O)(O)O (stereo not shown) [Example 82]	501 ± 39
CC(C)CC(C(=O)Nc1ccc(Cl)nc1)P(=O)(O)O (stereo not shown) [Example 83]	1130 ± 20
CC(C)CC(C(=O)Nc1ccc(C(N)=O)nc1)P(=O)(O)O (stereo not shown) [Example 84]	223 ± 16
COC(=O)c1ccc(NC(=O)C(CC(C)C)P(=O)(O)O)cn1 (stereo not shown) [Example 85]	194 ± 11
CC(C)CC(C(=O)Nc1cnc(Cl)nc1)P(=O)(O)O (stereo not shown) [Example 86]	498 ± 25
CC(C)CC(C(=O)Nc1cnc(Br)nc1)P(=O)(O)O (stereo not shown) [Example 87]	384 ± 2
CC(C)CC(C(=O)Nc1ccc(Cl)nn1)P(=O)(O)O (stereo not shown) [Example 88]	18800 ± 740
CC(C)CC(C(=O)Nc1ccc(Br)nn1)P(=O)(O)O (stereo not shown) [Example 89]	7910 ± 390
CC(C)CC(C(=O)N1CCN(c2ccc(Cl)cc2)CC1)P(=O)(O)O (stereo not shown) [Example 101]	1450 ± 30
CC(C)CC(C(=O)N1CCN(c2ncc(Br)cn2)CC1)P(=O)(O)O (stereo not shown) [Example 102]	35800 ± 1750
CC(C)CC(C(=O)NC1CCN(c2ccc(Cl)cc2)CC1)P(=O)(O)O (stereo not shown) [Example 103]	1910 ± 110
CC(C)CC(C(=O)Nc1ccc(NS(=O)(=O)c2ccc3c(c2)CN(C(=O)C(F)(F)F)CC3)cc1)P(=O)(O)O (stereo not shown) [Example 115]	57 ± 3
CC(C)CC(C(=O)Nc1ccc(NC(=O)c2ccc(Cl)c(Cl)c2)cc1)P(=O)(O)O (stereo not shown) [Example 118]	25 ± 1
CC(C)CC(C(=O)Nc1ccc(NC(=O)C(Cc2ccccc2)c2ccccc2)cc1)P(=O)(O)O (stereo not shown) [Example 120]	30 ± 1
CC(C)CC(C(=O)Nc1ccc(NC(=O)c2nc(Cl)cs2)cc1)P(=O)(O)O (stereo not shown) [Example 129]	49 ± 2

Structure (SMILES)	IC50 [nM]
CC(C)CC(C(=O)Nc1ccc(NC(=O)c2ccc(Cl)c(Cl)c2)cc1)P(=O)(O)O (stereo not shown) [Example 137]	41 ± 3
CC(C)CC(C(=O)NC1CCN(Cc2ccc(Cl)cc2)CC1)P(=O)(O)O (stereo not shown) [Example 146]	2270 ± 70
CC(C)CC(C(=O)N[C@@H]1CCCN(Cc2ccc(Cl)cc2)C1)P(=O)(O)O (stereo partly shown) [Example 148]	8360 ± 260
CC(C)C(CC(=O)N1CCN(Cc2ccc(-c3ccc(Cl)cc3)cc2)CC1)P(=O)(O)O (stereo not shown) [Example 149]	7280 ± 960
CC(C)CC(C(=O)N1CCN(Cc2ccc(-c3ccc(Cl)cc3)cc2)CC1)P(=O)(O)O (stereo not shown) [Example 150]	8660 ± 1110
CC(C)CC(C(=O)NC12CC(C(=O)Nc3ccc(Cl)c(Cl)c3)(C1)C2)P(=O)(O)O (stereo not shown) [Example 151, (1-((3-((3,4-Dichlorophenyl)carbamoyl)bicyclo[1.1.1]pentan-1-yl)amino)-4-methyl-1-oxopentan-2-yl)phosphonic acid]	347 ± 12
CC(C)CC(C(=O)N[C@@H](C)C(=O)Nc1ccc(Cl)c(Cl)c1)P(=O)(O)O (stereo partly shown) [Example 153]	62 ± 2
CC[C@H](C)[C@H](NC(=O)C(CC(C)C)P(=O)(O)O)C(=O)Nc1ccc(Cl)c(Cl)c1 (stereo partly shown) [Example 154]	13 ± 1
CC(C)CC(C(=O)N[C@@H](CC(C)C)C(=O)Nc1ccc(Cl)c(Cl)c1)P(=O)(O)O (stereo partly shown) [Example 155]	60 ± 2
CC(C)CC(C(=O)N[C@H](C(=O)Nc1ccc(Cl)c(Cl)c1)C1CCCCC1)P(=O)(O)O (stereo partly shown) [Example 156]	12
CC(C)CC(C(=O)N[C@@H](Cc1ccccc1)C(=O)Nc1ccc(Cl)c(Cl)c1)P(=O)(O)O (stereo partly shown) [Example 157]	427 ± 48
CC(C)CC(C(=O)N[C@@H](CC1CCCCC1)C(=O)Nc1ccc(Cl)c(Cl)c1)P(=O)(O)O (stereo partly shown) [Example 158]	242 ± 21
CC(C)C[C@@H](C(=O)N[C@@H](Cc1cccnc1)C(=O)Nc1ccc(Cl)c(Cl)c1)P(=O)(O)O [Example 159]	1500 ± 60
CC(C)C[C@H](C(=O)N[C@@H](Cc1cccnc1)C(=O)Nc1ccc(Cl)c(Cl)c1)P(=O)(O)O [Example 160]	573 ± 16
CC(C)C[C@@H](C(=O)N[C@@H](Cc1ccccn1)C(=O)Nc1ccc(Cl)c(Cl)c1)P(=O)(O)O [Example 161]	1360 ± 50
CC(C)C[C@H](C(=O)N[C@@H](Cc1ccccn1)C(=O)Nc1ccc(Cl)c(Cl)c1)P(=O)(O)O [Example 162]	416 ± 23
CC(C)CC(C(=O)NCC(=O)Nc1ccc(Cl)c(Cl)c1)P(=O)(O)O (stereo not shown) [Example 163]	1756 ± 3
CC(C)CC(C(=O)N[C@@H](CC1CC1)C(=O)Nc1ccc(Cl)c(Cl)c1)P(=O)(O)O (stereo partly shown) [Example 164]	27 ± 1
CC(C)CC(C(=O)N[C@H](C(=O)Nc1ccc(Cl)c(Cl)c1)c1ccccc1)P(=O)(O)O (stereo partly shown) [Example 165]	100 ± 3

same assay, conditions: read-out: IC50 against LasB

Structure (SMILES)	IC50 [nM]
O=C(Nc1nc2ccc(Cl)cc2s1)C(S)Cc1ccccc1 (stereo not shown) [Example 57]	2400 ± 200
O=C(Nc1nccs1)C(S)Cc1ccccc1 (stereo not shown) [Example 58]	1600 ± 100
COC(=O)c1ccsc1NC(=O)C(S)Cc1ccccc1 (stereo not shown) [Example 59]	8000 ± 1000
O=C(Nc1cccnc1)C(S)Cc1ccccc1 (stereo not shown) [Example 60]	1200 ± 100
